Broadly, the IC50 is the point on the concentration scale where inhibition reaches its midpoint. For orientation: EC50 means the concentration giving half of the maximal effect.

The values below come from paper PMC4492579, “Potent and Selective Triazole-Based Inhibitors of the Hypoxia-Inducible Factor Prolyl-Hydroxylases with Activity in the Murine Brain” (PLoS ONE, 2015).

One experiment has as its system HIF target genes. Put plainly: qRT-PCR of HIF target genes in mouse brain. It counts as in vivo, C57BL/6 mice. To be noted: 1 h treatment. Here is the method:
All animal experiments were performed on male C57BL/6 mice aged 3 months (purchased from Harlan Laboratories, Blackthorn) housed in specific pathogen free conditions with free access to water and standard chow. Mice were injected intraperitonially with the inhibitor (dissolved in Hanks’ buffered saline solution, pH 7.0, 5% DMSO final) or vehicle at the indicated doses for the indicated time as previously described. Tissues from treated mice were harvested and ‘snap frozen’ with liquid nitrogen before being stored at -80°C. For immunoblotting, a portion of the tissues was removed, weighed and homogenised in urea/SDS buffer before being analysed by immunoblotting with HIF1α rabbit polyclonal antibody (10006421, Cayman Chemical, 1:1000) or HIF2α rabbit polyclonal antibody (PM9 [27], 1:1000). […]
Genomic DNA were removed from total RNA preparation using the TURBO DNA-free kit (AM1907, Life Technologies) according to manufacturer’s protocol. […] Relative quantifications were calculated using the ∆∆Ct method normalised to β-actin. […]
To investigate whether the induction of HIFα in the mouse brain has an effect on HIF target genes, we performed quantitative real-time PCR (qRT-PCR) analyses on HIF target genes (including those involved in angiogenesis, i.e. Vegfa, Adm and Il6).
Background: Quantitative PCR measures a nucleic acid by following its amplification.

The target in a further experiment is T1, JMJD2E (KDM4E) (Homo sapiens, UniProt B2RXH2).
T1 sequence (B2RXH2 1-506): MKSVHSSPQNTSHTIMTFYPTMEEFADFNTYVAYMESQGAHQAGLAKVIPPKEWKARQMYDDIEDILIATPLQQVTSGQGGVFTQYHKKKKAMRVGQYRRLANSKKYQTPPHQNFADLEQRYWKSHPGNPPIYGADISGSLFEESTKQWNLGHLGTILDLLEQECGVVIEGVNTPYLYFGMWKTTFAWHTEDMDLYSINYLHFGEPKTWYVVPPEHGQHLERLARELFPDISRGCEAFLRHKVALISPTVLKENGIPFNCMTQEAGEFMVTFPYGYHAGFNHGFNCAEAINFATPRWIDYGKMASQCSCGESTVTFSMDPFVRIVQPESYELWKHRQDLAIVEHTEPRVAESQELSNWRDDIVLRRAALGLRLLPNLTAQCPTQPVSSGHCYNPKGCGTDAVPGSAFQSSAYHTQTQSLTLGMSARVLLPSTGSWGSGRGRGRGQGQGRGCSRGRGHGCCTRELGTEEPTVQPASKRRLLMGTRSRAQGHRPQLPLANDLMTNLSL
Put plainly: KDM AlphaScreen assay, JMJD2E. A general note: Bead proximity is the source of the signal in Alpha formats.

A further experiment deals with HIF1α and HIF2α. Put plainly: HIFα induction in tissues of treated mice (immunoblotting). The class given is in vivo, C57BL/6 mice. To be noted: i.p.; for HIF1α and HIF2α induction in liver, kidney and heart / HIF1α and HIF2α induction in the brain: equimolar: IOX2 37.7 mg/kg, IOX4 35 mg/kg, DMOG 75 mg/kg. As to the method:
All animal experiments were performed on male C57BL/6 mice aged 3 months (purchased from Harlan Laboratories, Blackthorn) housed in specific pathogen free conditions with free access to water and standard chow. Mice were injected intraperitonially with the inhibitor (dissolved in Hanks’ buffered saline solution, pH 7.0, 5% DMSO final) or vehicle at the indicated doses for the indicated time as previously described. Tissues from treated mice were harvested and ‘snap frozen’ with liquid nitrogen before being stored at -80°C. For immunoblotting, a portion of the tissues was removed, weighed and homogenised in urea/SDS buffer before being analysed by immunoblotting with HIF1α rabbit polyclonal antibody (10006421, Cayman Chemical, 1:1000) or HIF2α rabbit polyclonal antibody (PM9 [27], 1:1000). For RNA extraction, tissues were ‘snap frozen’ in liquid nitrogen immediately after harvesting, then ground to a fine powder using a cryogenic tissue pulveriser, keeping samples on dry ice at all times and processed for total RNA extraction using the mirVana miRNA isolation kit (AM1560, Life Technologies) according to the manufacturer’s protocol for processing frozen tissues. All animal procedures were compliant with the UK Home Office Animals (Scientific Procedures) Act 1986 and Local Ethical Review Procedures (University of Oxford Medical Sciences Division Ethical Review Committee).
The inhibitors or vehicle controls were injected intraperitonially into wild type C57BL/6 mice and sacrificed after the indicated treatment time before harvesting their tissues to be analysed for HIFα levels by immunoblotting.

A further experiment has as its system MCF-7. As to the kind of experiment: Quantitative HIF1α MSD immunoassay, MCF-7. To be noted: Homo sapiens, read-out: HIF1α EC50. It counts as cell-based. As to the method:
Cells were seeded into 96-well cell culture plates (150 μl culture volume) at approximately 60–70% confluency at least 12 h prior to the compound treatment. Half of the culture medium (75 μl/well) were removed and 75 μl/well of medium containing the desired concentrations of compounds were added into cells for 5 h. The cell medium was then removed and the cells were washed once with phosphate buffered saline (PBS), followed by the addition of lysis buffer (20 mM Tris pH 7.4, 450 mM NaCl, 1 mM EDTA, 1 mM EGTA, 0.5% Triton X-100, 1x complete protease inhibitor cocktail and 100 μM DFO). Plates were then left at 4°C with shaking. […] Plates were washed thrice with Tris Wash Buffer, added with 150 μl/well 2X Read Buffer (R92TC, Meso Scale Discovery) before being read with an MSD Sector S600 plate reader (Meso Scale Discovery). Signals generated were normalized to “lysis buffer-only” controls.
To quantify the cellular efficiency of PHD inhibition, we developed an electrochemiluminescence-based assay for the quantification of HIF1α levels using the Meso Scale Discovery (MSD, http://www.mesoscale.com) technology (HIF1α MSD assay), which is based on the capture and detection of HIF1α protein using two specific HIF1α antibodies. […]

The next experiment deals with JMJD3 (KDM6B) (Homo sapiens, UniProt O15054). Details: method as in PMID 26682036. To be noted: cited from earlier work.

SMILES strings stand for the structures. Counter-ions that a name gives are not always drawn. Like-named read-outs stand apart in the source and are kept apart here.

Sequence of JMJD3 (KDM6B) (O15054 whole entry): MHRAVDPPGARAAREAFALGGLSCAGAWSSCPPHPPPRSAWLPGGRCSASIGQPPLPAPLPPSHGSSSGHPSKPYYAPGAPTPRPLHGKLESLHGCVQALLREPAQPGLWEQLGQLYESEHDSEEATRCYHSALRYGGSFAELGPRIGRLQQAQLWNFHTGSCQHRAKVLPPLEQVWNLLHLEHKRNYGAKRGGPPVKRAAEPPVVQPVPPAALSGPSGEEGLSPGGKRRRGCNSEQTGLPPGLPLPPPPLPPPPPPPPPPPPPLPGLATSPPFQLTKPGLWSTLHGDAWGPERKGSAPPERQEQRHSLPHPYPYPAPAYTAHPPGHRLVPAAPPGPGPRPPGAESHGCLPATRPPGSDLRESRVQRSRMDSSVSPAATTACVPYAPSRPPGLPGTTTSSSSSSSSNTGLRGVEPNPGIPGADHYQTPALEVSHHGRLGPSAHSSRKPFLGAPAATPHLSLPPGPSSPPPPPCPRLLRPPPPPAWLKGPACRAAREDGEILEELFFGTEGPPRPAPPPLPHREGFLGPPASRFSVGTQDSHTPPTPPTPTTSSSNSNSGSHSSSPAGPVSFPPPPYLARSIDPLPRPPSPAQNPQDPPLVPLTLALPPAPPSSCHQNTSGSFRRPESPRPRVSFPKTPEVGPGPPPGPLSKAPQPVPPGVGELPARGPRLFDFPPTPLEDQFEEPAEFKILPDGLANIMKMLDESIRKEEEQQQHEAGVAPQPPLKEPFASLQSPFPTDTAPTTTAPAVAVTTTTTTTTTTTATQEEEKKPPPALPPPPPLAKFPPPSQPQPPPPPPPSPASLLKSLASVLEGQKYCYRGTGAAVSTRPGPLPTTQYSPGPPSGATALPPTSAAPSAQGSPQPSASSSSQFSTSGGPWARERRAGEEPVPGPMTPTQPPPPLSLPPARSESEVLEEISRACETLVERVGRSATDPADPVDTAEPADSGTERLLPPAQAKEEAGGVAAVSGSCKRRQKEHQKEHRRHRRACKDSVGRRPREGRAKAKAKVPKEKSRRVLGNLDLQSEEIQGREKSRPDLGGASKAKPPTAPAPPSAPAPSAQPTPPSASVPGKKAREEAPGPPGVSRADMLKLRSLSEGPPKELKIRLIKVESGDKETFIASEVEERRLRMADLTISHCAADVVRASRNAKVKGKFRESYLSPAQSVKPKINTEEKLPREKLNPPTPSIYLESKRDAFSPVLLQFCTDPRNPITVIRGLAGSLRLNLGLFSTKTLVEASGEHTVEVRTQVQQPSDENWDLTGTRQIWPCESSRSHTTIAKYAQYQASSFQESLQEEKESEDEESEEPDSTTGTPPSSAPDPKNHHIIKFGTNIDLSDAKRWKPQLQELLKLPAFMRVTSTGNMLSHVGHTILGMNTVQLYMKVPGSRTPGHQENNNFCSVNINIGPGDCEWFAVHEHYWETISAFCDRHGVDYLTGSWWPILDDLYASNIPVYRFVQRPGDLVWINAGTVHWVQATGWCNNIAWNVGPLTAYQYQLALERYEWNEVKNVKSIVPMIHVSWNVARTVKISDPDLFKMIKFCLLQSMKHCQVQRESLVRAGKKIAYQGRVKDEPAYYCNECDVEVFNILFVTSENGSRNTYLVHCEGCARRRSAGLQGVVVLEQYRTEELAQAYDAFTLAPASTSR
Method for JMJD2E (KDM4E): Inhibition assays for PHD2 (AlphaScreen) [9], the KDMs (AlphaScreen) [17], BBOX [18] and FTO [19] were carried out as previously described. […] IC50 values were calculated using nonlinear regression with normalized dose-response fit using GraphPad Prism 5.

As for `CC(C)(C)OC(=O)c1ccc(-n2[nH]cc(-n3ccnn3)c2=O)nc1` [IOX4, t-Butyl 6-(5-oxo-4-(1H-1,2,3-triazol-1-yl)-2,5-dihydro-1H-pyrazol-1-yl)nicotinate], in the experiment with HIF target genes, the “mRNA levels of HIF target genes Bnip3, Ldha and Il6 in mouse brain” value is reported as “remain unaffected”; the “mRNA levels of HIF target genes Epo, Vegfa and Adm in mouse brain” value is on record as “induced in a dose-dependent manner”. The half-maximal inhibitory concentration (IC50) against JMJD2E (KDM4E) is above 20 µM. For the same compound, in the experiment on HIF1α and HIF2α (1 h, 17.5 to 70 mg/kg), the “HIF1α and HIF2α induction in the liver and brain, dose dependence” value is reported as “Dose-dependent induction”. Further, in the experiment on HIF1α and HIF2α (1 h), the “HIF1α and HIF2α induction in liver, kidney and heart” value is “induction of HIF1α and HIF2α”; the “HIF1α and HIF2α induction in the brain” value is reported as “induced”. The EC50 with MCF-7 (MCF7, 5 h) amounted to 11.7 µM.

In the case of `O=C(O)c1ccc(-n2[nH]cc(-n3ccnn3)c2=O)nc1` [compound 1, 6-(5-oxo-4-(1H-1,2,3-triazol-1-yl)-2,5-dihydro-1H-pyrazol-1-yl)pyridine-3-carbocylic acid hydrochloride], the IC50 against JMJD2E (KDM4E) is above 20 µM.

Turning to `O=C(O)CNC(=O)c1c(O)c2ccccc2n(Cc2ccccc2)c1=O` [IOX2], in the experiment with HIF1α and HIF2α (1 h), the “HIF1α and HIF2α induction in liver, kidney and heart” value was “strongest induction”; the “HIF1α and HIF2α induction in the brain” value is on record as “not”. For the same compound, the “HIF1α induction in mouse liver” value in the experiment on HIF1α and HIF2α (IOX2 37.7 mg/kg, IOX3 30 mg/kg (equivalent molar dose), 1 h and […]) is listed as “induced in mouse liver after 1 h”. The EC50 in the experiment on MCF-7 (MCF7, MCF-7, 5 h treatment, MSD assay) was found to be 114 µM. The IC50 on JMJD3 (KDM6B) was above 100 µM.
